Source: the Kinase Knowledgebase extract (Sharma et al. 2016)
pIC50, pKi: −log10 of the molar value.

Target: MAPK14 (human) (UniProt Q16539)
Assay: Inhibition of MAPK14 Kinase Activity

MAPK14 (human), sequence (Q16539 whole entry, looked up): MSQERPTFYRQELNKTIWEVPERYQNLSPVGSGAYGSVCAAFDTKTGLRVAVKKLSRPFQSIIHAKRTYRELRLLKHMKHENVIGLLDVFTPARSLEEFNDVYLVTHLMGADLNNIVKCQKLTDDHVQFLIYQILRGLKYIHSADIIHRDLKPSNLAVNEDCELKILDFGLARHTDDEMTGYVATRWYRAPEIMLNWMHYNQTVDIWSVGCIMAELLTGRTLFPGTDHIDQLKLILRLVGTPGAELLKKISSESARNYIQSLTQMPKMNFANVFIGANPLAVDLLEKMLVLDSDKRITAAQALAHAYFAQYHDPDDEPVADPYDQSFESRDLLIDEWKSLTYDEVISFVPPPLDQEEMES

Question: `CNc1ncnc(Nc2cc(C(=O)NOC)ccc2C)c1C#N` was tested. Which pKi did it give?
Answer: 7.80

Question: How did the pKi turn out when `Cc1ccc(C(=O)Nc2ccon2)cc1Nc1ncnc(NC(C)C)c1C#N` was run?
Answer: 9.39

Question: How did the pKi turn out when `CONC(=O)c1ccc(C)c(Nc2nc(N)nc(N(C)CC(C)(C)C)c2C#N)c1` was run?
Answer: 10.30

Question: With `Cc1ccc(C(=O)Nc2ccon2)cc1Nc1nc(N)nc(NC(C)C)c1C#N` as the molecule, how does the pKi read?
Answer: 10.24

Question: `CCCNc1ncnc(Nc2cc(C(=O)NOC)ccc2C)c1C#N` was tested. Which pKi did it give?
Answer: 9.01

Question: What does the source list for `CCn1nccc1NC(=O)c1ccc(C)c(Nc2nc(N)nc(NC(C)C)c2C#N)c1`?
Answer: pIC50: 8.82; pKi: 8.82

Question: How did the pKi turn out when `Cc1ccc(C(=O)Nc2ccon2)cc1Nc1nc(N)nc(NC2CCCC2)c1C#N` was run?
Answer: 9.80

Question: With `Cc1ccc(C(=O)Nc2ccon2)cc1Nc1ncnc(NC2CCCC2)c1C#N` as the molecule, how does the pKi read?
Answer: 8.80

Question: With `CONC(=O)c1ccc(C)c(Nc2ncnc(N(C)CC(C)(C)C)c2C#N)c1` as the molecule, how does the pKi read?
Answer: 9.82

Question: With `CCn1nccc1NC(=O)c1ccc(C)c(Nc2nc(N)nc(NC3CCCC3)c2C#N)c1` as the molecule, how does the pIC50 read?
Answer: 8.72

Question: What about the pKi of the same molecule?
Answer: 8.72

Question: `CNc1nc(Nc2cc(C(=O)NOC)ccc2C)c(C#N)c(N(C)CC(C)(C)C)n1` was tested. Which pKi did it give?
Answer: 10.33

Question: How did the pKi turn out when `CCn1nccc1NC(=O)c1ccc(C)c(Nc2ncnc(NC3CCCC3)c2C#N)c1` was run?
Answer: 7.85

Question: How did the pKi turn out when `CONC(=O)c1ccc(C)c(Nc2ncnc(NC(C)C)c2C#N)c1` was run?
Answer: 9.21

Question: `CONC(=O)c1ccc(C)c(Nc2nc(N3CCCN(C)CC3)nc(N(C)CC(C)(C)C)c2C#N)c1` was tested. Which pKi did it give?
Answer: 10.24

Question: How did the pKi turn out when `CCn1nccc1NC(=O)c1ccc(C)c(Nc2ncnc(NC(C)C)c2C#N)c1` was run?
Answer: 7.82
